Experiments:
[1] = system: GDNF mRNA in MG-63 and U-2 OS cells; experiment: PCR of GDNF mRNA expression after cisplatin; format: cell-based, human; settings: 10 and 20 μM of cisplatin, 24 h
Description: FIG. 7. GFRα1-mediated chemoresistance of osteosarcoma cells is independent of GDNF. (a) Quantitative real-time PCR of GDNF mRNA expression after cisplatin treatment. MG-63 and U-2 OS cells were treated with different concentrations of cisplatin for 24 h. (b-d) Cell viability was measured using the WST-1 assay. The values are represented as a mean±s.d.m. (n=3). (b) MG-63 cells were treated with PBS or GDNF (50 ng/ml) for 24 h. (c) Control and GFRα1-overexpressing cells were cultured and treated with PBS or GDNF for 24 h. (d) Control and GFRα1-overexpressing cells were treated and cultured with PBS only, Cisplatin, or Cisplatin+GDNF (50 ng/ml) for 24 h, respectively. […] Representative images of RFP-LC3 and GFP-LC3 puncta. Scale bar, 20 μm. Control and GFRα1-overexpressing MG-63 cells were transiently transfected with an RFP-GFP tandem fluorescent-tagged LC3 (RFP-GFP-LC3) and then treated with PBS (top two panels) or cisplatin (20 μM; bottom two panes) for 24 h. […] (f) Quantitative analysis of the number of yellow puncta and the number of RFP-LC3 puncta in the combined images of Control and GFRα1-overexpressing MG-63 cells treated with GDNF. […]
Semi-quantitative RT-PCR. […]

[2] = system: GFRα1 mRNA in MG-63 and U-2 OS cells; experiment: Quantitative real-time PCR of GFRα1 mRNA after cisplatin; format: cell-based, human; settings: both cell lines; dose and time dependent
Description: FIG. 1. Cisplatin induces GFRα1 expression in osteosarcoma cells. (a-c) Immunoblot analysis of osteosarcoma cell lysates with antibodies specific for GFRα1 and β-actin. (a) MG-63 and U-2 OS cells were treated with doxorubicin (5 μM), cisplatin (20 μM), or methotrexate (1 mM) for 24 hr. Immunoblot analysis of GFRα1 (left) and quantification of GFRα1 expression (right) after treatment of chemotherapeutic agents. (b) MG-63 and U-2 OS cells were treated with different concentrations of cisplatin for 24 hr. (c) MG-63 and U-2 OS cells were treated with cisplatin (20 μM) and collected at the indicated time. (d and e) Quantitative real-time PCR of GFRα1 mRNA expression after cisplatin treatment. Representative images (top) and quantitative analysis (bottom) of GFRα1 mRNA expression. The values are presented as a mean±s.d.m (n=3). ** denotes p<0.05 by t-test. (d) MG-63 and U-2 OS cells were treated with different concentrations of cisplatin for 24 hr. (e) MG-63 and U-2 OS cells were treated with cisplatin (20 μM) and collected at the indicated time.
Quantitative real-time (RT)-PCR (qPCR). Total RNA was collected and isolated from cell lines using the RNeasy system according to the manufacturer's protocol (Qiagen, Hilden, Germany). cDNA was generated from a 30 μl reaction containing total RNA (3 μg), reverse transcriptase and oligo dT primers (Promega, Madison, Wis.). […]

SMILES: N.N.[Cl][Pt][Cl] [cisplatin, Cis-Diamineplatinum(II) dichloride]
- GDNF mRNA expression [1]: increase
- level of GFRα1 mRNA [2]: increased
